Reference: PMC10897196, “Structure–activity characteristics of phenylalanine analogs selectively transported by L-type amino acid transporter 1 (LAT1)” (Scientific Reports, 2024)

Legend:
[1] = Plasma concentration-time profile in normal mice after intravenous administration; assay type: in vivo; details: C57BL/6J mice, i.v., 15, 30, 60, 120 min; 2-F-Tyr 15.6 mg/kg, bicyclic-Phe 15 mg/kg
Experimental: The blood samples were collected at 15, 30, 60, and 120 min post-administration into lithium heparin-coated tubes (BD, New Jersey, USA) and then centrifuged at 1,500 ×g for 10 min at 23 °C. The resulting plasma was stored at −80 °C pending analysis by HPLC.
HPLC analyses were conducted as previously described. In brief, tumors and small intestines were homogenized in ice-cold PBS (3 times the tissue weight, v/w). The homogenates were then centrifuged at 15,000 ×g for 40 min at 4 °C. A 10 μL aliquot of the tissue supernatant or plasma was mixed with 190 μL of acetonitrile (MeCN) to precipitate proteins. This mixture was subsequently centrifuged at 15,000 ×g for 30 min at 4 °C. The resulting supernatant (100 μL) was dried, and the residue was reconstituted in 20 μL of 400 mM sodium borate (pH 8.0). Finally, 5 μL of 40 mM 4-fluoro-7-nitro-2,1,3-benzoxadiazole (NBD-F) in MeCN was added for fluorescence derivatization. HPLC analysis was carried out using a NANOSPACE SI-2 HPLC system (Shiseido, Tokyo, Japan) equipped with a fluorescence detector. […] The mobile phase consisted of MeCN, water, and trifluoroacetic acid (TFA) in a 27.5:72.5:0.05 (v/v/v) ratio, delivered at a flow rate of 200 μL/min.

[2] = biological target: T1, human LAT1 (Homo sapiens, UniProt Q01650); experiment: Efflux of pre-loaded L-[14C]leucine from HEK293-hLAT1 cells induced by extracellular compounds; assay type: cell-based; details: 1 min
T1 construct: expressed in transfected cells
Experimental: (§1) We evaluated the efflux of pre-loaded L-[^14C]leucine from LAT1 and pre-loaded L-[^14C]alanine from LAT2 induced by extracellularly applied compounds.
(§2) Efflux experiments were performed as described previously. Cells cultured 48 h were pre-loaded with 5 μM L-[^14C]leucine or L-[^14C]alanine for 10 min at 37 °C. The cells were then washed, and the efflux was induced by incubating cells for 1 min in either the absence or presence of non-radiolabeled test compounds at indicated concentrations. The efflux time of 1 min fell within the linear range of time-dependent substrate efflux mediated by LAT1 and LAT2 (Supplementary Fig. S2). Following incubation, the medium was collected and radioactivity was measured in both the medium and the cells. Efflux was quantified as the percentage of radioactivity released into the medium, calculated using the formula: radioactivity of medium/(radioactivity of medium + radioactivity of cells) × 100%.
(§3) The kinetic parameters for the efflux of L-[^14C]leucine or L-[^14C]alanine induced by various concentrations of extracellularly-applied test compounds were analyzed. The baseline efflux values—those obtained in the absence of test compounds—were subtracted from the values measured in the presence of the compounds. The resultant data were fitted to Michaelis–Menten kinetics to determine the Km and Vmax by nonlinear regression analysis using “enzyme kinetics-velocity as a function of substrate” module within GraphPad Prism software.

[3] = biological target: T2, human LAT2 (Homo sapiens, UniProt Q9UHI5); experiment: Efflux of pre-loaded L-[14C]alanine from HEK293-hLAT2 cells induced by extracellular compounds; assay type: cell-based; details: 1 min
T2 construct: expressed in transfected cells
T2 sequence (Q9UHI5 1-535): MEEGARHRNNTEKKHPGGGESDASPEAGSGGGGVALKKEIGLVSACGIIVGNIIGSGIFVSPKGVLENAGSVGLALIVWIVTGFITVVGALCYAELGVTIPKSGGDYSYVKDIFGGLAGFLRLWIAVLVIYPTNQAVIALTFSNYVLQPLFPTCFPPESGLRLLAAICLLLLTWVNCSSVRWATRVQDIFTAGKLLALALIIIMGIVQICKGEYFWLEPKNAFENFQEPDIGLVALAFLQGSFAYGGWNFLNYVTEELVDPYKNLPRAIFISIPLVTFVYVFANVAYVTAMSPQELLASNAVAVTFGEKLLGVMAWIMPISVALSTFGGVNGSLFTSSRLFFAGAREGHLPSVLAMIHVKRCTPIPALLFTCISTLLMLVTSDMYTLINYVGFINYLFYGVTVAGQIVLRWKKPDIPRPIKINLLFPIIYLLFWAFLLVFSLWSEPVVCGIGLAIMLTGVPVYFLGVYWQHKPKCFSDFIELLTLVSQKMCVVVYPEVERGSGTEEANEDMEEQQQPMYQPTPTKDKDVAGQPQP
T2 sequence (P08195 1-529 partner): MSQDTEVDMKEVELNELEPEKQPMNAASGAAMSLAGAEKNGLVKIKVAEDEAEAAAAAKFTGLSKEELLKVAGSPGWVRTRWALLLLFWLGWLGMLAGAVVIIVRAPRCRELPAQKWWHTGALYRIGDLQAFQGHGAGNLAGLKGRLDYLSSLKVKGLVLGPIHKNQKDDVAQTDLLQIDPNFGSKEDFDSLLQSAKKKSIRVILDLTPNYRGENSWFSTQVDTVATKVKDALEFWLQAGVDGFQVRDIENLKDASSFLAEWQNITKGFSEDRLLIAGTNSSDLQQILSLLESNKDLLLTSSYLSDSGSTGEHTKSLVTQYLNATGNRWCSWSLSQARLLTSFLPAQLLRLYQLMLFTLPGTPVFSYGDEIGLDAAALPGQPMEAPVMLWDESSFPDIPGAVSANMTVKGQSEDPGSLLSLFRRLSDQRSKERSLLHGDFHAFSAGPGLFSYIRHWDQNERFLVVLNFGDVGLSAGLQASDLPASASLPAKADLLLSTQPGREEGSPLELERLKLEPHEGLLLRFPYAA
Experimental: as §1, §2, §3

[4] = LAT1, L-[14C]leucine efflux, mean ± S.E.M., n = 3

T1 sequence (Q01650 whole entry, one chain of several): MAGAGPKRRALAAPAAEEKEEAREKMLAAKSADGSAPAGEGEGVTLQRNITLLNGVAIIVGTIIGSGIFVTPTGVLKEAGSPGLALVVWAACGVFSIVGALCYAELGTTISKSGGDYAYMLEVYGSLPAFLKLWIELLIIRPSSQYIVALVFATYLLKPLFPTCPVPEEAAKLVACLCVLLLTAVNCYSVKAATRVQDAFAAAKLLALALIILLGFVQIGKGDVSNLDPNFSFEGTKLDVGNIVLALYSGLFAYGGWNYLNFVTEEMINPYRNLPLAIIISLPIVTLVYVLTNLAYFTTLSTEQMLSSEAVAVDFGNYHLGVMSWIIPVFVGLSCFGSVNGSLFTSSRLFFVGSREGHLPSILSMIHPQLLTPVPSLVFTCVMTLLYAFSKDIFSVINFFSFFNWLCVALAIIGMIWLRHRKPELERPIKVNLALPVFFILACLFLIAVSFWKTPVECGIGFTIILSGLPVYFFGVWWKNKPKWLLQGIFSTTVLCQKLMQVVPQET

Km [2, 4]: 27.3 ± 3.08 µM
Vmax of efflux (% radioactivity/min) [2, 4]: 15.43 ± 0.40 % radioactivity/min
LAT1-mediated L-[14C]leucine efflux induced (in words) ([2]; compounds at 10, 30, 100 μM): transported by LAT1 as substrates
Vmax of efflux (% radioactivity/min) ([3]; LAT2, L-[14C]alanine efflux, mean ± S.E.M., n = 3): 10.05 ± 0.27 % radioactivity/min
LAT2-mediated L-[14C]alanine efflux induced (in words) ([3]; compounds at 10, 30, 100 μM): not efficiently transported by LAT2
SMILES: N[C@]1(C(=O)O)CCc2ccccc2C1 [bicyclic-Phe, (R)-2-amino-1,2,3,4-tetrahydro-2-naphthoic acid]
Plasma concentration (in words) [1]: consistently showing higher levels than 2-F-Tyr
